From patent US20250145561A1, “4-SUBSTITUTED-PHENYL ACETAMIDES AND ARYLUREAS AS AGONISTS FOR THE ORPHAN RECEPTOR GPR88” (RESEARCH TRIANGLE INSTITUTE, priority 2022, published 2025) come the findings set out here.

This test deals with T1, GPR88 (Homo sapiens, UniProt Q9GZN0).
T1 construct: expressed in transfected cells
As to the kind of experiment: Lance Ultra TR-FRET cAMP assay using stable PPLS-HA-GPR88 CHO cells. In kind it is cell-based. The note with it: for Emax: CHO; for EC50 / cAMP pEC50: stable PPLS-HA-GPR88 CHO cells; for EC50: value in parentheses beside pEC50; for cAMP pEC50: 300 nM forskolin, mean ± standard error of at least three independent experiments in duplicate. As for the experimental part: The compounds of the present disclosure offer potent agonism to the orphan receptor GPR88. As such, the compounds of the present disclosure provide therapeutic potential for the treatment of striatal associated disorders such as Parkinson's disease, schizophrenia, and alcohol addiction. All compounds were evaluated for the GPR88 agonist activity in the inventors' previously established in vitro GPR88 Lance TR-FRET cAMP assay. See, supra, Jin et al., 2018, Rahman et al., 2020, and Rahman et al., 2021. As will be described, the TR-FRET signal was converted to fmol cAMP by interpolating from the standard cAMP curve. Fmol cAMP was plotted against the log of compound concentration and data were fit to a three-parameter logistic curve to generate maximum response (Emax) and EC50 values.
Lance™ Ultra cAMP assay using stable PPLS-HA-GPR88 CHO cells. All cAMP assays were performed using the inventors' previously published methods. […] ACS Chemical Neuroscience 2016, 7, 1418-1432, which is incorporated by reference herein with regard to such teaching. Stimulation buffer containing 1× Hank's Balanced Salt Solution (HBSS), 5 mM HEPES, 0.1% BSA stabilizer, and 0.5 mM final IBMX was prepared and titrated to pH 7.4 at room temperature. Serial dilutions of the test compounds (5 μL) and 300 nM forskolin (5 μL), both prepared at 4× the desired final concentration in 2% DMSO/stimulation buffer, were added to a 96-well white ½ area microplate (PerkinElmer). A cAMP standard curve was prepared at 4× the desired final concentration in stimulation buffer and 5 μL was added to the assay plate. Stable PPLS-HA-GPR88 CHO cells were lifted with versene and spun at 270 g for 10 minutes. The cell pellet was resuspended in stimulation buffer and 4,000 cells (10 μL) were added to each well except wells containing the cAMP standard curve. After incubating for 30 min at room temperature, Eu-cAMP tracer and uLIGHT-anti-cAMPworking solutions were added per the manufacturer's instructions. After incubation at room temperature for 1 hour, the TR-FRET signal (ex 337 nm) was read on a CLARIOstar multimode plate reader (BMG Biotech, Cary, NC).
Data Analysis. The TR-FRET signal (665 nm) was converted to fmol cAMP by interpolating from the standard cAMP curve. Fmol cAMP was plotted against the log of compound concentration and data were fit to a three-parameter logistic curve to generate EC50 values (Prism, version 6.0, GraphPad Software, Inc., San Diego, CA).
A general note: TR-FRET usually uses a lanthanide donor and a delayed reading to cut background.

Molecules are shown by their SMILES.

T1 sequence (Q9GZN0 whole entry): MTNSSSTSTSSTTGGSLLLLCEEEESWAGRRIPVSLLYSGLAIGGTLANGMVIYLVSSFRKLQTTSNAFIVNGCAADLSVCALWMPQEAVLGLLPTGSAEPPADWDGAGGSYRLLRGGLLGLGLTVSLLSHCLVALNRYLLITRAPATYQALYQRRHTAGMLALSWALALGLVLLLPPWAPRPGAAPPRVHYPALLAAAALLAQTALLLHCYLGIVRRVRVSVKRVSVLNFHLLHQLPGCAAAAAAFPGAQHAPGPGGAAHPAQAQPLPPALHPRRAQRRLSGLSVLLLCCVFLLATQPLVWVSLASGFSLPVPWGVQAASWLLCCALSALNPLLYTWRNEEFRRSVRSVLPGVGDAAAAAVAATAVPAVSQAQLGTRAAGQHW

As a reminder, the Emax is the greatest response seen or fitted, relative to the assay's reference. The term EC50 denotes the concentration that produces a half-maximal response. For the compound `C[C@@H](NC(=O)[C@H](CO)c1ccc(-c2ccc(CC3CC3)cc2)cc1)c1ccccc1` [Compound 33, (2S)-2-[4′-(Cyclopropylmethyl)-[1,1′-biphenyl]-4-yl]-3-hydroxy-N-[(1 R)-1-phenylethyl]propenamide], the Emax came to 87 ± 5% and the EC50 is 263 nM. Regarding `C[C@@H](NC(=O)[C@H](CO)c1ccc(-c2ccc(OC3CC3)cc2)cc1)c1ccccc1` [Compound 34, (2S)-2-{4′-cyclopropoxy-[1,1′-biphenyl]-4-yl}-3-hydroxy-N-[(1 R)-1-phenylethyl]propenamide], the Emax turned out to be 86% and the EC50 was 245 nM. For the compound `C[C@@H](NC(=O)[C@H](CO)c1ccc(-c2ccc(OC3CCC3)cc2)cc1)c1ccccc1` [Compound 35, (2S)-2-{4′-Cyclobutoxy-[1,1′-biphenyl]-4-yl}-3-hydroxy-N-[(1 R)-1-phenylethyl]propenamide], the maximal response (Emax) was 90 ± 10% and the EC50 was 224 nM. Taken in the same sequence, the figures for `CCCC#Cc1ccc([C@@H](CO)C(=O)N[C@H](C)c2ccccc2)cc1` [Compound 36, (2S)-3-Hydroxy-2-[4-(pent-1-yn-1-yl)phenyl]-N-[(1 R)-1-phenylethyl]propenamide] were 92 ± 7% and 204 nM.

Regarding `CC(C)C#Cc1ccc([C@@H](CO)C(=O)N[C@H](C)c2ccccc2)cc1` [Compound 37, (2S)-3-Hydroxy-2-[4-(3-methylbut-1-yn-1-yl)phenyl]-N-[(1 R)-1-phenylethyl]propenamide], the Emax was found to be 102 ± 2% and the concentration giving a half-maximal response (EC50) was 479 nM. For `CCCc1ccc(-c2ccc(N(C[C@@H](N)[C@@H](C)CC)C(=O)Nc3ccccc3)cc2)cc1` [Compound 38, 3-[(2S,3S)-2-Amino-3-methylpentyl]-1-phenyl-3-{4′-propyl-[1,1′-biphenyl]-4-yl}urea], the “cAMP pEC50” value is given as “Inactive”.

As for `CCCc1ccc(-c2ccc(N(C[C@@H](N)[C@@H](C)CC)C(=O)N(C)c3ccccc3)cc2)cc1` [Compound 39, 3-[(2S,3S)-2-Amino-3-methylpentyl]-1-methyl-1-phenyl-3-{4′-propyl-[1,1′-biphenyl]-4-yi}urea], the Emax turned out to be 97 ± 12% and the EC50 is 2820 nM.

With `CCCc1ccc(-c2ccc(N(C[C@@H](N)[C@@H](C)CC)C(=O)NCc3ccccc3)cc2)cc1` [Compound 40, 3-[(2S,3S)-2-Amino-3-methylpentyl]-1-benzyl-3-{4′-propyl-[1,1′-biphenyl]-4-yl}urea], the maximal response (Emax) is 97 ± 4% and the half-maximal effective concentration (EC50) was 2000 nM. For the compound `CCCc1ccc(-c2ccc(N(C[C@@H](N)[C@@H](C)CC)C(=O)N[C@H](C)c3ccccc3)cc2)cc1` [Compound 41, 3-[(2S,3S)-2-Amino-3-methylpentyl]-1-[(1 R)-1-phenylethyl]-3-{4′-propyl-[1,1′-biphenyl]-4-yl}urea], the “cAMP pEC50” value is on record as “Inactive”.

Turning to `CCCc1ccc(-c2ccc(N(C[C@@H](N)[C@@H](C)CC)C(=O)N[C@@H](C)c3ccccc3)cc2)cc1` [Compound 42, 3-[(2S,3S)-2-Amino-3-methylpentyl]-1-[(1 S)-1-phenylethyl]-3-{4′-propyl-[1,1′-biphenyl]-4-yl}urea], the Emax stood at 106 ± 10% and the half-maximal effective concentration (EC50) is 1020 nM. On to `CCCCCCc1ccc(N(C[C@@H](N)[C@@H](C)CC)C(=O)N[C@@H](C)c2ccccc2)cc1` [Compound 43, 3-[(2S,3S)-2-Amino-3-methylpentyl]-3-(4-hexylphenyl)-1-[(1 S)-1-phenylethyl]urea], for which the Emax was 108 ± 4% and the EC50 was 1380 nM.

On to `CCCc1ccc(-c2ccc(N(C[C@@H](N)[C@@H](C)CC)C(=O)N[C@@H]3C[C@H]3c3ccccc3)cc2)cc1` [Compound 44, 1-[(2S,3S)-2-Amino-3-methylpentyl]-3-[(1 R,2S)-2-phenylcyclopropyl]-1-(4′-propyl-[1,1′-biphenyl]-4-yl}urea], for which the “cAMP pEC50” value is given as “Inactive”. For `CCCc1ccc(-c2ccc(N(C[C@@H](N)[C@@H](C)CC)C(=O)N[C@H]3C[C@@H]3c3ccccc3)cc2)cc1` [Compound 45, 1-[(2S,3S)-2-Amino-3-methylpentyl]-3-[(1 S,2R)-2-phenylcyclopropyl]-1-(4′-propyl-[1,1′-biphenyl]-4-yl}urea], the Emax amounted to 110 ± 5% and the EC50 was 2290 nM. Taken in the same sequence, the figures for `CCCc1ccc(-c2ccc(N(C[C@@H](N)[C@@H](C)CC)C(=O)NC3(c4ccccc4)CC3)cc2)cc1` [Compound 46, 1-[(2S,3S)-2-Amino-3-methylpentyl]-3-(1-phenylcyclopropyl)-1-{4′-propyl-[1,1′-biphenyl]-4-yl}urea] were 91 ± 4% and 1860 nM. Regarding `CCCc1ccc(-c2ccc(N(C[C@@H](N)[C@@H](C)CC)C(=O)N[C@@H](CC)c3ccccc3)cc2)cc1` [Compound 47, 3-[(2S,3S)-2-Amino-3-methylpentyl]-1-[(1 S)-1-phenylpropyl]-3-{4′-propyl-[1,1′-biphenyl]-4-yl}urea], the Emax was found to be 103 ± 4% and the EC50 was 2000 nM.

For `CCCc1ccc(-c2ccc(N(C[C@@H](N)[C@@H](C)CC)C(=O)N[C@@H](COC)c3ccccc3)cc2)cc1` [Compound 48, 3-[(2S,3S)-2-Amino-3-methylpentyl]-1-[(1 R)-2-methoxy-1-phenylethyl]-3-{4′-propyl-[1,1′-biphenyl]-4-yl}urea], the Emax turned out to be 110 ± 5% and the EC50 was 1550 nM. Taken in the same sequence, the figures for `CCCc1ccc(-c2ccc(N(C[C@@H](N)[C@@H](C)CC)C(=O)N[C@@H](C)c3ccco3)cc2)cc1` [Compound 49, 1-[(2S,3S)-2-Amino-3-methylpentyl]-3-[(1 S)-1-(furan-2-yl)ethyl]-1-{4′-propyl-[1,1′-biphenyl]-4-yl}urea] were 115 ± 5% and 2570 nM. The corresponding values for `CCCc1ccc(-c2ccc(N(C[C@@H](N)CC(C)C)C(=O)N[C@@H](C)c3ccccc3)cc2)cc1` [Compound 50, 3-[(2S)-2-Amino-4-methylpentyl]-1-[(1 S)-1-phenylethyl]-3-{4′-propyl-[1,1′-biphenyl]-4-yl}urea] are 112 ± 8% and 1200 nM. Taken in the same sequence, the figures for `CCCc1ccc(-c2ccc(N(C[C@H](N)CC(C)C)C(=O)N[C@@H](C)c3ccccc3)cc2)cc1` [Compound 51, 3-[(2R)-2-Amino-4-methylpentyl]-1-[(1 S)-1-phenylethyl]-3-{4′-propyl-[1,1′-biphenyl]-4-yl}urea] were 129 ± 4% and 1410 nM. For the compound `CCCc1ccc(-c2ccc(N(C[C@H](C)N)C(=O)N[C@@H](C)c3ccccc3)cc2)cc1` [Compound 52, 3-[(2S)-2-Aminopropyl]-1-[(1 S)-1-phenylethyl]-3-{4′-propyl-[1,1′-biphenyl]-4-yl}urea], the Emax is 107 ± 3% and the EC50 was 1290 nM.

Consider `CCCc1ccc(-c2ccc(N(C[C@@H]3CCCN3)C(=O)N[C@@H](C)c3ccccc3)cc2)cc1` [Compound 53, 1-[(1 S)-1-Phenylethyl]-3-{4′-propyl-[1,1′-biphenyl]-4-yl}-3-{[(2S)-pyrrolidin-2-yl]methyl}urea], for which the maximal effect (Emax) was determined as 106 ± 3% and the concentration for a half-maximal effect (EC50) was 1740 nM.

As for `CCCc1ccc(-c2ccc(N(C[C@@H](N)[C@@H](C)OC)C(=O)N[C@@H](C)c3ccccc3)cc2)cc1` [Compound 54, 3-[(2R,3R)-2-Amino-3-methoxybutyl]-1-[(1 S)-1-phenylethyl]-3-{4′-propyl-[1,1′-biphenyl]-4-yl}urea], the Emax worked out at 106 ± 3% and the concentration for a half-maximal effect (EC50) is 324 nM.
